Source: patent publication US11168079B2, “Alkene compounds as farnesoid x receptor modulators” (BRISTOL-MYERS SQUIBB COMPANY, priority 2017, dated 2021)

target: T1, human FXR (Homo sapiens, UniProt Q96RI1); assay: transient human FXR/Gal4-luciferase reporter assay (HLE GAL-FXR); details: FXR EC50 (nM), Gal4-hFXR fusion reporter, HEK293 cells; Table 1
T1 sequence (Q96RI1 262-486 limits assumed): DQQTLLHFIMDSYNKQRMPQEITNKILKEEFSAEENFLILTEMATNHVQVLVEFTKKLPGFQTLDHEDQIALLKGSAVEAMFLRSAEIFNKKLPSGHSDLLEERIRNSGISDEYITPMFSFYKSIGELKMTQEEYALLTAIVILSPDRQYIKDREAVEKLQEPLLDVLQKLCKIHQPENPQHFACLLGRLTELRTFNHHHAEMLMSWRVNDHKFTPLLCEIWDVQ

Compared with `O=C(O)c1nc(C(F)(F)F)n2cc(N3CCC(/C=C/c4c(-c5c(Cl)cccc5Cl)noc4C4CC4)CC3)ccc12` [Example 39], `O=C(O)c1ccc2nc(N3CCC(/C=C/c4c(-c5c(Cl)cccc5Cl)noc4C4CC4)CC3)sc2c1` [Example 22] is 2.4-fold higher in EC50: 5 nM for the first, 12 nM for the second. The first is the more potent here.

Compared with `O=C(O)c1ccc2cc(N3CCC(/C=C/c4c(-c5c(Cl)cccc5Cl)noc4C4CC4)CC3)ccc2n1` [Example 26], `O=C(O)c1cc2ccc(N3CCC(/C=C/c4c(-c5c(Cl)cccc5Cl)noc4C4CC4)CC3)cc2cn1` [Example 37] is 2.8-fold higher in EC50: 6 nM for the first, 17 nM for the second. The first is the more potent here.

`O=C(O)c1cccc(-c2ccc(N3CC(/C=C/c4c(-c5ccccc5C(F)(F)F)noc4C4CC4)C3)cc2)c1` [Example 207] and `COc1cc(C(=O)O)nc2ccc(N3CC(/C=C/c4c(-c5ccccc5C(F)(F)F)noc4C4CC4)C3)cc12` [Example 154] are within 1.5-fold of each other in EC50: 64 nM for the first, 63 nM for the second.

Compared with `COc1cc(C(=O)O)nc2ccc(N3CCC(/C=C/c4c(-c5c(Cl)cncc5Cl)noc4C4CC4)CC3)cc12` [Example 88], `O=C(O)c1cc(OC(F)F)c2cc(N3CCC(/C=C/c4c(-c5c(Cl)cncc5Cl)noc4C4CC4)CC3)ccc2n1` [Example 92] is 1.7-fold lower in EC50: 5 nM for the first, 3 nM for the second.

Going from `O=C(O)c1nc2ccc(N3CC4C(/C=C/c5c(-c6c(Cl)cncc6Cl)noc5C5CC5)C4C3)cc2s1` (stereo not shown) [Example 107] to `O=C(O)c1ccc2nc(N3CC4C(/C=C/c5c(-c6c(Cl)cncc6Cl)noc5C5CC5)C4C3)ccc2c1` (stereo not shown) [Example 79], the EC50 rises from 472 nM to 1160 nM (2.5-fold). The first is the more potent here.

`COc1cc(C(=O)O)cc2sc(N3CC4C(/C=C/c5c(-c6c(Cl)cncc6Cl)noc5C5CC5)C4C3)nc12` (stereo not shown) [Example 114] and `COc1nc(C(=O)O)cc2ccc(N3CC4C(/C=C/c5c(-c6c(Cl)cncc6Cl)noc5C5CC5)C4C3)cc12` (stereo not shown) [Example 122] are within 1.5-fold of each other in EC50: 131 nM for the first, 126 nM for the second.

First: COc1ccc(COc2cc(C(=O)O)nc3ccc(N4CC5C(/C=C/c6c(-c7c(Cl)cncc7Cl)noc6C6CC6)C5C4)cc23)cc1 (stereo not shown) [Example 129]
Second: CC(C)Oc1cc(C(=O)O)nc2ccc(N3CC4C(/C=C/c5c(-c6c(Cl)cncc6Cl)noc5C5CC5)C4C3)cc12 (stereo not shown) [Example 109]
The EC50 of the first is 9.6-fold higher: 240 nM for the first, 25 nM for the second.

`Clc1cccc(Cl)c1-c1noc(C2CC2)c1/C=C/C1C2CN(c3ccc(-c4nn[nH]n4)cc3)CC12` (stereo not shown) [Example 61] and `O=C(O)c1ccc(N2CC3C(/C=C/c4c(-c5c(Cl)cccc5Cl)noc4C4CC4)C3C2)cc1` (stereo not shown) [Example 47, (E)-4-(6-(2-(5-cyclopropyl-3-(2,6-dichlorophenyl)isoxazol-4-yl)vinyl)-3-azabicyclo[3.1.0]hexan-3-yl)benzoic acid] are within 1.5-fold of each other in EC50: 41 nM for the first, 40 nM for the second.

Compared with `Clc1cccc(Cl)c1-c1noc(C2CC2)c1/C=C/C1CCN(c2ccc(-c3nn[nH]n3)cn2)CC1` [Example 64], `O=C(O)c1ccnc(N2CCC(/C=C/c3c(-c4c(Cl)cccc4Cl)noc3C3CC3)CC2)c1` [Example 36] is 4.8-fold higher in EC50: 30 nM for the first, 144 nM for the second. The first is the more potent here.

`O=C(O)c1cc(C(F)(F)F)c2cc(N3CC(/C=C/c4c(-c5c(Cl)cncc5Cl)noc4C4CC4)C3)ccc2n1` [Example 162] and `O=C(O)c1cc(C(F)(F)F)c2cc(N3CCC(/C=C/c4c(-c5ccncc5Cl)noc4C4CC4)CC3)ccc2n1` [Example 84] are within 1.5-fold of each other in EC50: 150 nM for the first, 215 nM for the second.

Compared with `COc1cc(-c2nc(N3CC4C(/C=C/c5c(-c6c(Cl)cncc6Cl)noc5C5CC5)C4C3)no2)cc(C(=O)O)n1` (stereo not shown) [Example 164], `O=C(O)c1cc2ccc(N3CC4C(/C=C/c5c(-c6c(Cl)cccc6Cl)noc5C5CC5)C4C3)cc2cn1` (stereo not shown) [Example 48] is 1.6-fold higher in EC50: 297 nM for the first, 468 nM for the second.

First: O=C(O)c1cnc(N2CC3C(/C=C/c4c(-c5c(Cl)cccc5Cl)noc4C4CC4)C3C2)s1 (stereo not shown) [Example 86]
Second: O=C(O)c1cnc(N2CCC(/C=C/c3c(-c4c(Cl)cccc4Cl)noc3C3CC3)CC2)cn1 [Example 24]
The EC50 of the first is 8-fold higher: 1010 nM for the first, 127 nM for the second. The second is the more potent here.

`O=C(O)c1cc2ccc(N3CC4C(/C=C/c5c(-c6ccccc6C(F)(F)F)noc5C5CC5)C4C3)cc2cn1` (stereo not shown) [Example 76] and `Cn1cc(C(=O)O)c(=O)c2ccc(N3CC4C(/C=C/c5c(-c6ccccc6C(F)(F)F)noc5C5CC5)C4C3)cc21` (stereo not shown) [Example 190] are within 1.5-fold of each other in EC50: 413 nM for the first, 376 nM for the second.

Going from `O=C(O)c1cnn2cc(N3CCC(/C=C/c4c(-c5ccccc5OC(F)(F)F)noc4C4CC4)CC3)ccc12` [Example 118] to `O=C(O)c1cc(OC2CC2)c2cc(N3CC(/C=C/c4c(-c5ccccc5C(F)(F)F)noc4C4CC4)C3)ccc2n1` [Example 196], the EC50 falls from 276 nM to 53 nM (5.2-fold). The second is the more potent here.

Compared with `O=C(O)c1cc(O[C@H]2C[C@@H](F)C2)c2cc(N3CC4C(/C=C/c5c(-c6ccccc6C(F)(F)F)noc5C5CC5)C4C3)ccc2n1` (stereo partly shown) [Example 185], `O=C(O)c1cc(O[C@H]2CCOC2)c2cc(N3CC(/C=C/c4c(-c5ccccc5C(F)(F)F)noc4C4CC4)C3)ccc2n1` [Example 193] is 31-fold higher in EC50: 11 nM for the first, 343 nM for the second.

Compared with `O=C(O)c1ccn2nc(N3CCC(/C=C/c4c(-c5c(Cl)cccc5Cl)noc4C4CC4)CC3)ncc12` [Example 29], `COc1cc(C(=O)O)nc2ccc(N3CCC(/C=C/c4c(-c5ncccc5C(F)(F)F)noc4C4CC4)CC3)cc12` [Example 125] is 4.3-fold lower in EC50: 60 nM for the first, 14 nM for the second.

In the case of `O=C(O)c1cc(O[C@@H]2CCOC2)c2cc(N3CC(/C=C/c4c(-c5cccnc5C(F)(F)F)noc4C4CC4)C3)ccc2n1` [Example 188], the EC50 is reported as 1690 nM.

same assay, conditions: HLE GAL-FXR EC50, Gal4-hFXR fusion reporter, HEK293 cells

Compared with `O=C(O)c1cc(F)c2nc(N3CCC(/C=C/c4c(C5CC5)nnn4-c4c(Cl)cccc4Cl)CC3)sc2c1` [Example 10, (E)-2-(4-(2-(4-Cyclopropyl-1-(2,6-dichlorophenyl)-1H-1,2,3-triazol-5-yl)vinyl)piperidin-1-yl)-4-fluorobenzo[d]thiazole-6-carboxylic acid], `Clc1cccc(Cl)c1-c1noc(C2CC2)c1/C=C/C1CCN(c2ccc(-c3nnn[nH]3)cc2)CC1` [Example 56, (E)-4-(2-(1-(4-(1H-Tetrazol-5-yl)phenyl)piperidin-4-yl)vinyl)-5-cyclopropyl-3-(2,6-dichlorophenyl)isoxazole] is 21-fold lower in EC50: 64 nM for the first, 3 nM for the second.

Compared with `CC1(/C=C/c2c(-c3c(Cl)cccc3Cl)noc2C2CC2)CCN(c2ccc3nc(C(=O)O)ccc3c2)CC1` [Example 7, (E)-6-(4-(2-(5-cyclopropyl-3-(2,6-dichlorophenyl)isoxazol-4-yl)vinyl)-4-methylpiperidin-1-yl)quinoline-2-carboxylic acid], `O=C(O)c1ccc2cc(N3CC4C(/C=C/c5c(-c6c(Cl)cccc6Cl)noc5C5CC5)C4C3)ccc2n1` (stereo not shown) [Example 9, (E)-6-(6-(2-(5-cyclopropyl-3-(2,6-dichlorophenyl)isoxazol-4-yl)vinyl)-3-azabicyclo[3.1.0]hexan-3-yl)quinoline-2-carboxylic acid] is 5.8-fold lower in EC50: 227 nM for the first, 39 nM for the second. The second is the more potent here.

Going from `O=C(O)c1cccc(-c2noc(N3CC4C(/C=C/c5c(-c6c(Cl)cncc6Cl)noc5C5CC5)C4C3)n2)c1` (stereo not shown) [Example 133, (E)-3-(5-(6-(2-(5-cyclopropyl-3-(3,5-dichloropyridin-4-yl)isoxazol-4-yl)vinyl)-3-azabicyclo[3.1.0]hexan-3-yl)-1,2,4-oxadiazol-3-yl)benzoic acid] to `COc1cc(C(=O)O)cc(-c2nsc(N3CC4C(/C=C/c5c(-c6c(Cl)cncc6Cl)noc5C5CC5)C4C3)n2)c1` (stereo not shown) [Example 214, (E)-3-(5-(6-(2-(5-Cyclopropyl-3-(3,5-dichloropyridin-4-yl)isoxazol-4-yl)vinyl)-3-azabicyclo[3.1.0]hexan-3-yl)-1,2,4-thiadiazol-3-yl)-5-methoxybenzoic acid], the EC50 falls from 1290 nM to 107 nM (12-fold). The second is the more potent here.

same assay, conditions: read-out: FXR EC50; Gal4-hFXR fusion reporter, HEK293 cells; Table 1

`COc1cc(C(=O)O)cc(-c2nc(N3CC4C(/C=C/c5c(-c6c(Cl)cncc6Cl)noc5C5CC5)C4C3)no2)c1` (stereo not shown) [Example 165] showed an EC50 of 222 nM.
